One data set deals with HPK1. In words: HPK1 immune complex in vitro kinase (IVK) assay, endogenous HPK1 from treated Jurkat cells. It is filed as cell-based, human. Particulars: for PGE2-induced HPK1 activity: Jurkat cells pretreated with 10 μM H-89, then PGE2; for HPK1 kinase activity (IVK) after phosphatase inhibitor: Jurkat cells, 10 min at 37° C., 100 nM calyculin A, 10 nM okadaic acid, 2 μg/ml cyclosporine A, 10 nM pervanadate.

Data set [1] has as its target HA-tagged murine HPK1 point mutant R168K (UniProt P70218).
Data set [2] deals with HA-tagged murine HPK1 point mutant R169K (UniProt P70218).
Data set [3] deals with HA-tagged murine HPK1 point mutant S171A (UniProt P70218).

Take `O=S(=O)(NCCNC/C=C/c1ccc(Br)cc1)c1cccc2cnccc12` [H-89]: the figures for the “PGE2-induced HPK1 activity” value in the data set on HPK1 and in the data set on HPK1 (listed as H89) were “blocked” and “blocks PGE2-induced HPK1 activation”, respectively.
With `COC[C@@H]([C@H](O)[C@H](O)C(=O)NCC[C@H](C)c1nc(/C=C/C[C@@H]2O[C@]3(C[C@@H](O)[C@@H]2C)O[C@H]([C@H](C[C@H](O)[C@H](C)[C@H](O)[C@H](C)/C=C(C)/C(C)=C/C=C/C(C)=C\C#N)OC)[C@H](OP(=O)(O)O)C3(C)C)co1)N(C)C` [calyculin A], the “HPK1 kinase activity (IVK) after phosphatase inhibitor” value in the data set on HPK1 is reported as “activated HPK1 kinase activity”.
Still for that read-out and setting: the entry for `C=C1[C@@H](O)[C@@H]2O[C@]3(CC[C@H](/C=C/[C@@H](C)[C@@H]4CC(C)=C[C@@]5(O[C@H](C[C@@](C)(O)C(=O)O)CC[C@H]5O)O4)O3)CC[C@H]2O[C@@H]1[C@@H](O)C[C@H](C)[C@H]1O[C@@]2(CCCCO2)CC[C@H]1C` [okadaic acid] is “activated HPK1 kinase activity”.
In the case of “cAMP-dependent protein kinase A (PKA), endogenous in Jurkat T cells”, the figures for the “HPK1 kinase activity (IVK assay) in response to PGE2 stimulation” value in data set [1], in data set [2] and in data set [3] were “Arginine to lysine mutations at either residue 168 or 169 of HPK1 reduced the responsiveness to PGE2 stimulation by approximately 90%”, “Arginine to lysine mutations at either residue 168 or 169 of HPK1 reduced the responsiveness to PGE2 stimulation by approximately 90%” and “mutation of serine 171 ablated the response of HPK1 to PGE2 stimulation signals”, respectively.
Turning to cholera toxin, the “HPK1 kinase activity (IVK) after PKA activator” value in the data set with HPK1 is on record as “robustly induced HPK1 kinase activity”.
With pervanadate, the “HPK1 kinase activity (IVK) after phosphatase inhibitor” value in the data set on HPK1 is listed as “induced a response in HPK1 catalytic activity”.
